Holding throughout (assay type): cell-based
Test [1] addresses T1, Kv7.2-W236L (Homo sapiens, UniProt O43526, W236L).
T1 construct: gene KCNQ2
Kind of test: […] flux in transfected CHO cells; two-electrode voltage clamp in Xenopus oocytes (inhibition).

Test [2] has as its target T2, Kv7.2 (Homo sapiens, UniProt O43526).
T2 construct: gene KCNQ2
The test is described as follows: […] flux in transfected CHO cells; two-electrode voltage clamp in Xenopus oocytes.

Test [3] deals with T3, Kv7.1 (Homo sapiens, UniProt P51787).
T3 construct: gene KCNQ1
T3 sequence (P51787 1-676): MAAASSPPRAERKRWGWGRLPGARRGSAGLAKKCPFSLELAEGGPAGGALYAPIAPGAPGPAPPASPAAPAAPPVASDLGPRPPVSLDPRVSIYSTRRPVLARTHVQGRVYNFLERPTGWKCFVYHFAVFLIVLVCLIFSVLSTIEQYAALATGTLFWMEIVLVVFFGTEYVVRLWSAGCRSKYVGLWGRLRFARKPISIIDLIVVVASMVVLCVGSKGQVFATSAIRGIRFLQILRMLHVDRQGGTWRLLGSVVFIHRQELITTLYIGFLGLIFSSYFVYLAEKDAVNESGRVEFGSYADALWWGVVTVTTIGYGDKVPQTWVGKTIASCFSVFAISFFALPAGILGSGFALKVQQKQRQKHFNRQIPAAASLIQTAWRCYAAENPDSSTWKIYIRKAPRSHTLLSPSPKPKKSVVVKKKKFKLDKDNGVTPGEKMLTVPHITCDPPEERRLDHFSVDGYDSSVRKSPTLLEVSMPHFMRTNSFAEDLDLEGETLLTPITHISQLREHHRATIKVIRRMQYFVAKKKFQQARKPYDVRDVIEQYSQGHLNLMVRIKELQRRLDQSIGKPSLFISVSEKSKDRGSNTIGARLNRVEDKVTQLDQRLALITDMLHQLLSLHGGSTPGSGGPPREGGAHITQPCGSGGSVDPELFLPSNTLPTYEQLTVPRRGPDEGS
Kind of test: two-electrode voltage clamp in Xenopus oocytes, […]; weak inhibition. The following applies: read-out: % of control current at +40 mV (10 μM).

The target of test [4] is T4, Kv7.5 (Homo sapiens, UniProt Q9NR82).
T4 construct: gene KCNQ5
T4 sequence (Q9NR82 whole entry): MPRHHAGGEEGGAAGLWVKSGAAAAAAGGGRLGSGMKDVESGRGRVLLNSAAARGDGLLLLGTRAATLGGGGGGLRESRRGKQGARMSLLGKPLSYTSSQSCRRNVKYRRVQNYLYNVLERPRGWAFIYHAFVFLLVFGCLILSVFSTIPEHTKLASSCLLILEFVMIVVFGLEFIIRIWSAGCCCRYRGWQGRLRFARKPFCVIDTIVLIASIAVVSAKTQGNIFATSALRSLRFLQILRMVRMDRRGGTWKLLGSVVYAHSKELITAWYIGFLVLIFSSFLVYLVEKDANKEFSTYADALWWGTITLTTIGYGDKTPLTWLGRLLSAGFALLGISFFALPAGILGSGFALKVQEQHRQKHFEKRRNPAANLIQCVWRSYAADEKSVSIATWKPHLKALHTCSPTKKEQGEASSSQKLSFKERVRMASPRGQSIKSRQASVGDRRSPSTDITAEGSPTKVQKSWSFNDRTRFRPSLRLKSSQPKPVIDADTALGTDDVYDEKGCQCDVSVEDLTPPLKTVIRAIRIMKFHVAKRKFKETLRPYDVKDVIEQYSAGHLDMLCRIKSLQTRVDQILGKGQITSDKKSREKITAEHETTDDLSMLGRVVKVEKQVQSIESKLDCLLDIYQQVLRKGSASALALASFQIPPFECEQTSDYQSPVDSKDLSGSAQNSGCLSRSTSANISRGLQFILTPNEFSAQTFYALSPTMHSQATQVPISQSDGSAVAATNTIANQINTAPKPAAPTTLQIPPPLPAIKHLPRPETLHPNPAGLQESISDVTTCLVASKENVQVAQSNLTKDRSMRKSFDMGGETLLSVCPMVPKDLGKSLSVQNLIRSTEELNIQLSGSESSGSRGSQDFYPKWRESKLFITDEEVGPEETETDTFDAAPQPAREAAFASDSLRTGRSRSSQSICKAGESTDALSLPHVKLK
Kind of test: two-electrode voltage clamp in Xenopus oocytes, […]; current […] of control at +[…] mV. The following applies: read-out: % of control current at +40 mV (10 μM).

Test [5] has as its target T5, Kv7.4 (Homo sapiens, UniProt P56696).
T5 construct: gene KCNQ4
T5 sequence (P56696 1-695): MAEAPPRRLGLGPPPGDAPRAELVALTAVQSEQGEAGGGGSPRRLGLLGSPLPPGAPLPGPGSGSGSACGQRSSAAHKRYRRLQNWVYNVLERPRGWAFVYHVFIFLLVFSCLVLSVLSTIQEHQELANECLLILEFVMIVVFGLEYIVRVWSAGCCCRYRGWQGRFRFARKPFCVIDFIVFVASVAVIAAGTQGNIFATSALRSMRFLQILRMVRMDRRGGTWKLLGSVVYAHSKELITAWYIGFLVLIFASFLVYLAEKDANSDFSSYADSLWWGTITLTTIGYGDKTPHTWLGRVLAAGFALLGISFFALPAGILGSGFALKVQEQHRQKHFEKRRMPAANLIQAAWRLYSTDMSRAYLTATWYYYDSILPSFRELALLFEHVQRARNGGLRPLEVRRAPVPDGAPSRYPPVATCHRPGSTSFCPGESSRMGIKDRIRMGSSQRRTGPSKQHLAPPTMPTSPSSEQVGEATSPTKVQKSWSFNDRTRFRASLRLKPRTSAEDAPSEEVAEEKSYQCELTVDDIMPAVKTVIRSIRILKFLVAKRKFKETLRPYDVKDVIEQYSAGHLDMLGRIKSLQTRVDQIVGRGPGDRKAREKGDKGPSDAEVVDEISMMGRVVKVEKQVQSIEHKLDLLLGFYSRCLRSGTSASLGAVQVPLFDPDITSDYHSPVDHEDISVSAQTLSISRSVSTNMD
The test is described as follows: […] flux in transfected CHO cells; two-electrode voltage clamp in Xenopus oocytes; W242L loss of sensitivity.

One molecule from publication PMC2788219, “The Acrylamide (S)-2 As a Positive and Negative Modulator of Kv7 Channels Expressed in Xenopus laevis Oocytes” (PLoS ONE, 2009) can be followed below.

Molecules are shown by their SMILES.

T2 sequence (O43526 whole entry): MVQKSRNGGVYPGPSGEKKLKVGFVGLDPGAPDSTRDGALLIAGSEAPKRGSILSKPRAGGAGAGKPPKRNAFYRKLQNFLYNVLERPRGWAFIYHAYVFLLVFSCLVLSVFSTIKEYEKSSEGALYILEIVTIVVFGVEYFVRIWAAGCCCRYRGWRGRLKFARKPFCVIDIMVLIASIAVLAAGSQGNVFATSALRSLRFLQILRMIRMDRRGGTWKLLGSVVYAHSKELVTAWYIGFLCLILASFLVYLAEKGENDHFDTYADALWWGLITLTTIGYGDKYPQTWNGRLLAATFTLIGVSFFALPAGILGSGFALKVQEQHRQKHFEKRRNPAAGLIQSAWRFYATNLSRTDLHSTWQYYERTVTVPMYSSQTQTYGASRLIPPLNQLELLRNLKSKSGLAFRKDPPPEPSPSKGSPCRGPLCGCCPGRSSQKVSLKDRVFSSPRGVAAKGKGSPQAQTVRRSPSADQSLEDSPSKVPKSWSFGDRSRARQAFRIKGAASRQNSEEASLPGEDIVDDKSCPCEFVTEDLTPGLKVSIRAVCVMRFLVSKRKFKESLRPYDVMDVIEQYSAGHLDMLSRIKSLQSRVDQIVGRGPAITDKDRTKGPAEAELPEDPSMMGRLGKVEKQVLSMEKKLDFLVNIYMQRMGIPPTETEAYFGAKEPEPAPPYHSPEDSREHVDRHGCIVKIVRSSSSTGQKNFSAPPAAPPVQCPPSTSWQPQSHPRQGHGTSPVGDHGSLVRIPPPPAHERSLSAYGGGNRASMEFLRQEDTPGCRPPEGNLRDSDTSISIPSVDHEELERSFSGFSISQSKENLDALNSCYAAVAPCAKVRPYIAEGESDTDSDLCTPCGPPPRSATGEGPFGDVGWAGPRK
T1 sequence (O43526 whole entry W236L): as the sequence (O43526 whole entry) above, with W236L counted along it

Regarding `C[C@H](NC(=O)/C=C/c1ccccc1F)c1ccc2c(c1)N(CC1CC1)CCO2` [(S)-2, (S)-N-[1-(4-Cyclopropylmethyl-3,4-dihydro-2H-benzo[1], [4]oxazin-6-yl)-ethyl]-3-(2-fluoro-phenyl)-acrylamide], the IC50 in test [1] came to 8100 nM. Also, the EC50 in test [2] came out at 170 nM; in test [5], 220 nM. Further, the remaining activity at 10 µM is 87.9 ± 2.2% in test [3] and 676 ± 83.5% in test [4].
